Results: patent US6280712A, “Sun screen agents” (Cognis Deutschland GmbH, priority 1997, dated 2001)

Tests used:
Type in all cases: physicochemical
Zeidler spreading value = test: Zeidler spreading value
From the text: in which R^1 and R^2 independently of one another represent linear or branched alkyl and/or alkenyl groups containing 1 to 22 carbon atoms, with the proviso that they contain in all at least 12, preferably 12 to 50 and more preferably 15 to 25 carbon atoms. The compounds are obtained by transesterifying dimethyl or diethyl carbonate, for example, with the corresponding fatty alcohols in known manner. Accordingly, the fatty carbonates may be symmetrical or non-symmetrical. However, carbonates in which R^1 and R^2 are the same and represent C6-16 alkyl groups are preferably used. Transesterification products of dimethyl or diethyl carbonate with octanol, 2-ethylhexyl alcohol, decanol, cetyl alcohol, cetearyl alcohol, stearyl alcohol, isostearyl alcohol, oleyl alcohol, behenyl alcohol and/or erucyl alcohol in the form of their mono- and diesters or technical mixtures and Guerbet alcohols containing 8 to 24 carbon atoms are particularly preferred. […] The dialkyl carbonates may be used in quantities of 1 to 30% by weight, preferably 5 to 20% by weight and more preferably 8 to 10% by weight, based on the composition.

[1] = Volatility of the oil (remark in Table 1); conditions: remark at Zeidler spreading value
[2] = Dissolving power for UV filters (statement in words); conditions: for dissolving properties for UV filters: general statement; for dissolving power for UV filters: in contrast to other high-spreading oils, for example dialkyl ethers or cyclomethicone
[3] = High-spreading property (statement in words); conditions: general statement

Compound | Zeidler spreading value (Zeidler spreading value) [mm^2/10 mins] | volatility [1] | dissolving properties for UV filters [2] | dissolving power for UV filters [2] | spreading [3]
Cyclomethicone [reference compound] | > 1600 | volatile |  |  | 
CCCCCCCCOC(=O)OCCCCCCCC [di-n-octyl carbonate] | 1600 |  | excellent dissolving properties for UV filters | distinctly higher dissolving power for UV filters | high-spreading
CCCCC(CC)COC(=O)OCC(CC)CCCC (stereo not shown) [di-2-ethylhexyl carbonate] | 1600 |  | excellent dissolving properties for UV filters | distinctly higher dissolving power for UV filters | high-spreading
